Assay results reported in patent publication US20130212744A1, “METHOD OF REDUCING INSECT-VECTORED VIRAL INFECTIONS” (priority 2010, published 2013).
Where two headings read alike, the source gives them in different places.

What was measured:
Assay type in all cases: in vivo
[1] = system: TYLCV (tomato yellow leaf curl virus); test: Foliar use field trial on tomato, infected leaf area by TYLC virus
Experimental: (§1) Two studies were carried out in Elhasanya, Egypt in 2009 on tomato plants of the variety Fayrouz with the main goal to measure efficacy on the whitefly Bemisia tabaci. The plot size was 4.8 m^2 and 6 replicates were used in the trial. Products were applied 3 times on young tomato plants at BBCH stages 14, 17 and 51 at spray intervals between 12 and 19 days. The spray volume was at the first application 350 l/ha and later 500 l/ha. The evaluation of this study was done counting the adult whiteflies (Bemisia tabaci) as well as the nymphs and the eggs in each plot. In addition to the direct whitefly effect, visual symptoms of the virus, mainly TYLCV (tomato yellow leaf curl virus) were evaluated also.
(§2) ASM=Acibenzolar-S-methyl. WG 50=Actigard® 50WG, a water-dispersible granule with the active ingredient ASM CYNT=Cyantraniliprole. WG 40=Cyazypyr®, a water dispersable granule with the active ingredient CYNT. Results on whitefly adults. Trial 1
Evaluation of percentage of infected leaf area by TYLC virus (average of 45 plants evaluated per treatment) Trial 1

[2] = system: whitefly Bemisia tabaci nymphs; test: Foliar use field trial on tomato, efficacy on whitefly nymphs; details: Bemisia tabaci, foliar
Experimental: as §1, §2

[3] = system: whitefly Bemisia tabaci nymphs; test: Soil use (drench) field trial on tomato, efficacy on whitefly nymphs; details: for Emax at 100 g/ha: 100 g ai/ha; for Emax at 150 g/ha: 150 g ai/ha
Experimental: as §1, with “Two soil applied” for “Two”, “plants” for “plants of the variety Fayrouz”, “Products were applied 3 times on young tomato plants at BBCH stages 14, 17 and 51 at spray intervals between 12 and 19 days.” left out, “350” for “350 l/ha and later 500”

[4] = system: whitefly Bemisia tabaci adults; test: Foliar use field trial on tomato, efficacy on whitefly adults; details: Bemisia tabaci, foliar
Experimental: as §1, §2

For `CNC(=O)c1cc(C#N)cc(C)c1NC(=O)c1cc(Br)nn1-c1ncccc1Cl` [CYNT, 3-bromo-1-(3-chloro-2-pyridyl)-4′-cyano-2′-methyl-6′-(methylcarbamoyl)pyrazole-5-carboxanilide], the “% Infected Surface area with virus / plant” value ([1]; 75 g ai/hl, 5DAA2, Trial 1) was 0.0%, the “% Infected Surface area with virus / plant” value ([1]; 75 g ai/hl, 5DAA2, Trial 2) was 0.0% and the “% Infected Surface area with virus / plant” value ([1]; 75 g ai/hl, 5DAA3, Trial 1) was 3.0%. For the same molecule, the “% Infected Surface area with virus / plant” value ([1]; 75 g ai/hl, 5DAA3, Trial 2) was 3.0%, the “% Infected Surface area with virus / plant” value ([1]; 75 g ai/hl, 10DAA3, Trial 1) was 5.1% and the “% Infected Surface area with virus / plant” value ([1]; 75 g ai/hl, 10DAA3, Trial 2) was 5.1%. For the same molecule, the “% Infected Surface area with virus / plant” value ([1]; 75 g ai/hl, 15DAA3, Trial 1) was 7.1%, the “% Infected Surface area with virus / plant” value ([1]; 75 g ai/hl, 15DAA3, Trial 2) was 7.1% and the “% Infected Surface area with virus / plant” value ([1]; 75 g ai/hl, 20DAA3, Trial 1) was 9.8%. The “% Infected Surface area with virus / plant” value ([1]; 75 g ai/hl, 20DAA3, Trial 2) was 9.8%, the “% Infected Surface area with virus / plant” value ([1]; 75 g ai/hl, 24DAA3, Trial 1) was 10.3% and the “% Infected Surface area with virus / plant” value ([1]; 75 g ai/hl, 24DAA3, Trial 2) was 10.3%. For the same molecule, the “% Infected Surface area with virus / plant” value ([1]; 100 g ai/hl, 5DAA2, Trial 1) was 0.8%, the “% Infected Surface area with virus / plant” value ([1]; 100 g ai/hl, 5DAA2, Trial 2) was 0.8% and the “% Infected Surface area with virus / plant” value ([1]; 100 g ai/hl, 5DAA3, Trial 1) was 1.9%. For the same molecule, the “% Infected Surface area with virus / plant” value ([1]; 100 g ai/hl, 5DAA3, Trial 2) was 1.9%, the “% Infected Surface area with virus / plant” value ([1]; 100 g ai/hl, 10DAA3, Trial 1) was 3.1% and the “% Infected Surface area with virus / plant” value ([1]; 100 g ai/hl, 10DAA3, Trial 2) was 3.1%. The “% Infected Surface area with virus / plant” value ([1]; 100 g ai/hl, 15DAA3, Trial 1) was 3.9%, the “% Infected Surface area with virus / plant” value ([1]; 100 g ai/hl, 15DAA3, Trial 2) was 3.9% and the “% Infected Surface area with virus / plant” value ([1]; 100 g ai/hl, 20DAA3, Trial 1) was 4.5%. For the same molecule, the “% Infected Surface area with virus / plant” value ([1]; 100 g ai/hl, 20DAA3, Trial 2) was 4.5%, the “% Infected Surface area with virus / plant” value ([1]; 100 g ai/hl, 24DAA3, Trial 1) was 5.3% and the “% Infected Surface area with virus / plant” value ([1]; 100 g ai/hl, 24DAA3, Trial 2) was 5.3%. It also gave an Emax ([2]; 75 g ai/hl, 5DAA2, Trial 1, read-out: % Efficacy on Nymphs) of 27%, an Emax ([2]; 75 g ai/hl, 5DAA2, Trial 2, read-out: % Efficacy on Nymphs) of 27% and an Emax ([2]; 75 g ai/hl, 5DAA3, Trial 1, read-out: % Efficacy on Nymphs) of 72%. For the same molecule, the Emax ([2]; 75 g ai/hl, 5DAA3, Trial 2, read-out: % Efficacy on Nymphs) was 72%, the Emax ([2]; 75 g ai/hl, 10DAA2, Trial 1, read-out: % Efficacy on Nymphs) was 48% and the Emax ([2]; 75 g ai/hl, 10DAA2, Trial 2, read-out: % Efficacy on Nymphs) was 48%. The Emax ([2]; 75 g ai/hl, 10DAA3, Trial 1, read-out: % Efficacy on Nymphs) was 65%, the Emax ([2]; 75 g ai/hl, 10DAA3, Trial 2, read-out: % Efficacy on Nymphs) was 65% and the Emax ([2]; 75 g ai/hl, 15DAA3, Trial 1, read-out: % Efficacy on Nymphs) was 60%. The Emax ([2]; 75 g ai/hl, 15DAA3, Trial 2, read-out: % Efficacy on Nymphs) was 60%, the Emax ([2]; 75 g ai/hl, 20DAA3, Trial 1, read-out: % Efficacy on Nymphs) was 48% and the Emax ([2]; 75 g ai/hl, 20DAA3, Trial 2, read-out: % Efficacy on Nymphs) was 48%. For the same molecule, the Emax ([2]; 75 g ai/hl, Avg, Trial 1, read-out: % Efficacy on Nymphs Avg % C) was 53%, the Emax ([2]; 100 g ai/hl, 5DAA2, Trial 1, read-out: % Efficacy on Nymphs) was 73% and the Emax ([2]; 100 g ai/hl, 5DAA2, Trial 2, read-out: % Efficacy on Nymphs) was 73%. It also gave an Emax ([2]; 100 g ai/hl, 5DAA3, Trial 1, read-out: % Efficacy on Nymphs) of 84%, an Emax ([2]; 100 g ai/hl, 5DAA3, Trial 2, read-out: % Efficacy on Nymphs) of 84% and an Emax ([2]; 100 g ai/hl, 10DAA2, Trial 1, read-out: % Efficacy on Nymphs) of 73%. The Emax ([2]; 100 g ai/hl, 10DAA2, Trial 2, read-out: % Efficacy on Nymphs) was 73%, the Emax ([2]; 100 g ai/hl, 10DAA3, Trial 1, read-out: % Efficacy on Nymphs) was 78% and the Emax ([2]; 100 g ai/hl, 10DAA3, Trial 2, read-out: % Efficacy on Nymphs) was 78%. The Emax ([2]; 100 g ai/hl, 15DAA3, Trial 1, read-out: % Efficacy on Nymphs) was 68%, the Emax ([2]; 100 g ai/hl, 15DAA3, Trial 2, read-out: % Efficacy on Nymphs) was 68% and the Emax ([2]; 100 g ai/hl, 20DAA3, Trial 1, read-out: % Efficacy on Nymphs) was 56%. For the same molecule, the Emax ([2]; 100 g ai/hl, 20DAA3, Trial 2, read-out: % Efficacy on Nymphs) was 56%, the Emax ([2]; 100 g ai/hl, Avg, Trial 1, read-out: % Efficacy on Nymphs Avg % C) was 72% and the Emax at 100 g/ha ([3]; 25DAA1, Trial 2) was 60%. For the same molecule, the Emax at 100 g/ha ([3]; 30DAA1, Trial 2) was 34%, the Emax at 100 g/ha ([3]; 35DAA1, Trial 2) was 63% and the Emax at 100 g/ha ([3]; 40DAA2, Trial 2) was 52%. For the same molecule, the Emax at 150 g/ha ([3]; 25DAA1, Trial 2) was 78%, the Emax at 150 g/ha ([3]; 30DAA1, Trial 2) was 79% and the Emax at 150 g/ha ([3]; 35DAA1, Trial 2) was 77%. For the same molecule, the Emax at 150 g/ha ([3]; 40DAA2, Trial 2) was 61%, the Emax at 100 g/ha ([3]; 240 h, 10DAA, Trial 1) was 67% and the Emax at 150 g/ha ([3]; 240 h, 10DAA, Trial 1) was 69%. For the same molecule, the Emax at 100 g/ha ([3]; 360 h, 15DAA, Trial 1) was 65%, the Emax at 150 g/ha ([3]; 360 h, 15DAA, Trial 1) was 84% and the Emax at 100 g/ha ([3]; 480 h, 20DAA, Trial 1) was 59%. The Emax at 150 g/ha ([3]; 480 h, 20DAA, Trial 1) was 84%, the Emax at 100 g/ha ([3]; 600 h, 25DAA, Trial 1) was 39% and the Emax at 150 g/ha ([3]; 600 h, 25DAA, Trial 1) was 77%. The Emax at 100 g/ha ([3]; 720 h, 30DAA, Trial 1) was 28%, the Emax at 150 g/ha ([3]; 720 h, 30DAA, Trial 1) was 74% and the Emax at 100 g/ha ([3]; 840 h, 35DAA, Trial 1) was 24%. For the same molecule, the Emax at 150 g/ha ([3]; 840 h, 35DAA, Trial 1) was 70%, the Emax at 100 g/ha ([3]; 960 h, 40DAA, Trial 1) was 13% and the Emax at 150 g/ha ([3]; 960 h, 40DAA, Trial 1) was 64%. For the same molecule, the Emax ([4]; 75 g ai/hl, 5DAA1, Trial 1, read-out: % Efficacy on Adults) was 82%, the Emax ([4]; 75 g ai/hl, 5DAA1, Trial 2, read-out: % Efficacy on Adults) was 82% and the Emax ([4]; 75 g ai/hl, 5DAA2, Trial 1, read-out: % Efficacy on Adults) was 69%. The Emax ([4]; 75 g ai/hl, 5DAA2, Trial 2, read-out: % Efficacy on Adults) was 69%, the Emax ([4]; 75 g ai/hl, 5DAA3, Trial 1, read-out: % Efficacy on Adults) was 83% and the Emax ([4]; 75 g ai/hl, 5DAA3, Trial 2, read-out: % Efficacy on Adults) was 83%. The Emax ([4]; 75 g ai/hl, 10DAA1, Trial 1, read-out: % Efficacy on Adults) was 49%, the Emax ([4]; 75 g ai/hl, 10DAA1, Trial 2, read-out: % Efficacy on Adults) was 49% and the Emax ([4]; 75 g ai/hl, 10DAA2, Trial 1, read-out: % Efficacy on Adults) was 67%. For the same molecule, the Emax ([4]; 75 g ai/hl, 10DAA2, Trial 2, read-out: % Efficacy on Adults) was 67%, the Emax ([4]; 75 g ai/hl, 10DAA3, Trial 1, read-out: % Efficacy on Adults) was 79% and the Emax ([4]; 75 g ai/hl, 10DAA3, Trial 2, read-out: % Efficacy on Adults) was 79%. The Emax ([4]; 75 g ai/hl, 15DAA3, Trial 1, read-out: % Efficacy on Adults) was 71%, the Emax ([4]; 75 g ai/hl, 15DAA3, Trial 2, read-out: % Efficacy on Adults) was 71% and the Emax ([4]; 75 g ai/hl, 20DAA3, Trial 1, read-out: % Efficacy on Adults) was 62%. The Emax ([4]; 75 g ai/hl, 20DAA3, Trial 2, read-out: % Efficacy on Adults) was 62%, the Emax ([4]; 75 g ai/hl, Avg, Trial 1, read-out: % Efficacy on Adults Avg % C) was 70% and the Emax ([4]; 100 g ai/hl, 5DAA1, Trial 1, read-out: % Efficacy on Adults) was 89%. The Emax ([4]; 100 g ai/hl, 5DAA1, Trial 2, read-out: % Efficacy on Adults) was 89%, the Emax ([4]; 100 g ai/hl, 5DAA2, Trial 1, read-out: % Efficacy on Adults) was 89% and the Emax ([4]; 100 g ai/hl, 5DAA2, Trial 2, read-out: % Efficacy on Adults) was 89%. For the same molecule, the Emax ([4]; 100 g ai/hl, 5DAA3, Trial 1, read-out: % Efficacy on Adults) was 90%, the Emax ([4]; 100 g ai/hl, 5DAA3, Trial 2, read-out: % Efficacy on Adults) was 90% and the Emax ([4]; 100 g ai/hl, 10DAA1, Trial 1, read-out: % Efficacy on Adults) was 74%. For the same molecule, the Emax ([4]; 100 g ai/hl, 10DAA1, Trial 2, read-out: % Efficacy on Adults) was 74%, the Emax ([4]; 100 g ai/hl, 10DAA2, Trial 1, read-out: % Efficacy on Adults) was 86% and the Emax ([4]; 100 g ai/hl, 10DAA2, Trial 2, read-out: % Efficacy on Adults) was 86%. The Emax ([4]; 100 g ai/hl, 10DAA3, Trial 1, read-out: % Efficacy on Adults) was 86%, the Emax ([4]; 100 g ai/hl, 10DAA3, Trial 2, read-out: % Efficacy on Adults) was 86% and the Emax ([4]; 100 g ai/hl, 15DAA3, Trial 1, read-out: % Efficacy on Adults) was 80%. It also gave an Emax ([4]; 100 g ai/hl, 15DAA3, Trial 2, read-out: % Efficacy on Adults) of 80%, an Emax ([4]; 100 g ai/hl, 20DAA3, Trial 1, read-out: % Efficacy on Adults) of 68% and an Emax ([4]; 100 g ai/hl, 20DAA3, Trial 2, read-out: % Efficacy on Adults) of 68%. It also gave an Emax ([4]; 100 g ai/hl, Avg, Trial 1, read-out: % Efficacy on Adults Avg % C) of 83%.
